Earlier results on four compounds are cited in patent publication US20100028276A1, “SUNSCREEN COMPOSITIONS” (priority 2007, published 2010).

The conditions of series [1]: uterine wet weight, cell height, cell proliferation assays.
Series [2] concerns cancer cells.

`Cc1ccc(C=C2C(=O)C3(C)CCC2C3(C)C)cc1` (stereo not drawn) [4-methyl-benzylidene camphor, 3-(4-methylbenxylidene) camphor]: the estrogenicity entry in series [1] was “highly estrogenic”. Moreover, the “effect on growth of cancer cells” value in series [2] is “made cancer cells grow more rapidly”.

As for `COc1ccc(C(=O)c2ccccc2)c(O)c1` [benzophenone-s, Benzophenone-3], the estrogenicity entry in series [1] is “highly estrogenic”. The “effect on growth of cancer cells” value in series [2] is recorded as “made cancer cells grow more rapidly”.

For `CC1CC(OC(=O)c2ccccc2O)CC(C)(C)C1` (stereo not drawn) [homosalate], the “effect on growth of cancer cells” value in series [2] is “made cancer cells grow more rapidly”.

Consider `CCCCC(CC)COC(=O)c1ccc(N(C)C)cc1` (stereo not drawn) [octyl-dimethyl-PABA], for which the “effect on growth of cancer cells” value in series [2] was “made cancer cells grow more rapidly”.
